# Biological target: T1, catalytic domain of human Bub1 (amino acids 704-1085) (Homo sapiens, UniProt O43683)
# T1 construct: catalytic domain of human Bub1 (amino acids 704-1085); His6 (N); made in house; host or cells: insect cells (Hi5)
# Assay: Bub1 kinase assay (TR-FRET)
# Assay type: biochemical
# Settings: 10 μM ATP, avg, read-out: Bub1 avg (IC50 [mol/l])
# Outline: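 Readout is the 665/620 nm TR-FRET ratio from anti-phosphoserine antibody, Eu-labelled anti-mouse IgG and streptavidin-XL665, scaled between no-enzyme and uninhibited controls. Reaction: 1 μM biotinylated peptide, 10 μM ATP, 60 min, 22 °C, after 15 min compound preincubation with His6-Bub1 (704-1085, insect-expressed, ~200 ng/ml).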
# T1 sequence (O43683 704-1085): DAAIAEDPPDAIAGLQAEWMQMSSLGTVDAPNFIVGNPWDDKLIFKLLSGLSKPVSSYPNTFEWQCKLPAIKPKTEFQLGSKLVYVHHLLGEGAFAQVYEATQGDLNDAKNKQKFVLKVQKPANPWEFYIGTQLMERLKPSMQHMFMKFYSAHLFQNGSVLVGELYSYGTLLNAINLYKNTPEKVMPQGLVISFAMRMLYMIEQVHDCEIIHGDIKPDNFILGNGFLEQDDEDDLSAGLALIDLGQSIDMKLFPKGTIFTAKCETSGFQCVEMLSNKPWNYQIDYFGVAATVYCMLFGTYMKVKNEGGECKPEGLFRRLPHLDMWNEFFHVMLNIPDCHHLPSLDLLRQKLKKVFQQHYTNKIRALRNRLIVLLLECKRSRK
row,SMILES,IC50
1,"Cc1nsc(Nc2cc(C#N)ccn2)c1C(=O)Nc1ccc(OCCCN)nc1 [Example 44, N-[6-(3-Aminopropoxy)pyridin-3-yl]-5-[(4-cyanopyridin-2-yl)amino]-3-methyl-1,2-thiazole-4-carboxamide]",≥ 20 µM
2,"Cc1nsc(Nc2cnc(C(F)(F)F)cn2)c1C(=O)Nc1ccc(O[C@@H]2CN(CC(F)(F)F)C[C@@H]2F)nc1 [Example 410, N-(6-{[(3R,4S)-4-Fluoro-1-(2,2,2-trifluoroethyl)pyrrolidin-3-yl]oxy}pyridin-3-yl)-3-methyl-5-{[5-(trifluoromethyl)pyrazin-2-yl]amino}-1,2-thiazole-4-carboxamide]",> 20 µM
3,"Cc1nsc(Nc2ccc(C#N)cn2)c1C(=O)Nc1ccc(OC2CCCNC2)nc1 (centres unmarked) [Example 37, 5-[(5-Cyanopyridin-2-yl)amino]-3-methyl-N-[6-(piperidin-3-yloxy)pyridin-3-yl]-1,2-thiazole-4-carboxamide]",≥ 20 µM
4,"Cc1nsc(Nc2cnc(C(F)(F)F)cn2)c1C(=O)Nc1ccc(OCCN2CCC(F)(F)CC2)nc1 [Example 407, N-{6-[2-(4,4-Difluoropiperidin-1-yl)ethoxy]pyridin-3-yl}-3-methyl-5-{[5-(trifluoromethyl)pyrazin-2-yl]amino}-1,2-thiazole-4-carboxamide]",> 20 µM
5,"Cc1nsc(Nc2cnc(C(F)(F)F)cn2)c1C(=O)Nc1ccc(OCCCNC(=O)C(F)(F)F)nc1 [Example 428, 3-Methyl-N-(6-{3-[(trifluoroacetyl)amino]propoxy}pyridin-3-yl)-5-{[5-(trifluoro-methyl)pyrazin-2-yl]amino}-1,2-thiazole-4-carboxamide]",> 20 µM
6,"Cc1nsc(Nc2cnc(C(F)(F)F)cn2)c1C(=O)Nc1ccc(F)c(O[C@H]2CCN(CC(F)F)C2)c1 [Example 417, N-(3-{[(3S)-1-(2,2-Difluoroethyl)pyrrolidin-3-yl]oxy}-4-fluorophenyl)-3-methyl-5-{[5-(trifluoromethyl)pyrazin-2-yl]amino}-1,2-thiazole-4-carboxamide]",1.8 µM
7,"Cc1nsc(Nc2ccc(C#N)cn2)c1C(=O)Nc1ccc(OC[C@H]2CCN(CC(F)(F)F)C2)nc1 [Example 405, 5-[(5-Cyanopyridin-2-yl)amino]-3-methyl-N-(6-{[(35)-1-(2,2,2-trifluoroethyl)pyrrolidin-3-yl]methoxy}pyridin-3-yl)-1,2-thiazole-4-carboxamide]",> 20 µM
8,"Cc1nsc(Nc2nc3c(C(F)(F)F)cccc3s2)c1C(=O)Nc1ccc(OCCO)nc1 [Example 2, N-[6-(2-Hydroxyethoxy)pyridin-3-yl]-3-methyl-5-{[4-(trifluoromethyl)-1,3-benzo-thiazol-2-yl]amino}-1,2-thiazole-4-carboxamide]",≥ 20 µM
9,"Cc1nsc(Nc2ccc(C#N)cn2)c1C(=O)Nc1ccc(OCCCNC(=O)OC(C)(C)C)nc1 [Example 46, tert-Butyl [3-({5-[({5-[(5-cyanopyridin-2-yl)amino]-3-methyl-1,2-thiazol-4-yl}-carbonyl)amino]pyridin-2-yl}oxy)propyl]carbamate]",≥ 20 µM
10,"Cc1nsc(Nc2cnc(C(F)(F)F)cn2)c1C(=O)Nc1ccc(OC[C@H]2CCCN(CCC(F)(F)F)C2)nc1 [Example 378, 3-methyl-5-{[5-(trifluoromethyl)pyrazin-2-yl]amino}-N-(6-{[(3S)-1-(3,3,3-trifluoropropyl)piperidin-3-yl]methoxy}pyridin-3-yl)-1,2-thiazole-4-carboxamide]",≥ 20 µM
11,"Cc1nsc(Nc2nc3c(C(F)(F)F)cccc3s2)c1C(=O)Nc1ccc(OCCO)c(F)c1 [Example 4, N-[3-Fluoro-4-(2-hydroxyethoxy)phenyl]-3-methyl-5-{[4-(trifluoromethyl)-1,3-benzothiazol-2-yl]amino}-1,2-thiazole-4-carboxamide]",≥ 20 µM
12,"Cc1nsc(Nc2cnc(C(F)(F)F)cn2)c1C(=O)Nc1ccc(OC[C@H]2CCN(CC(F)(F)F)C2)nc1 [Example 404, 3-Methyl-N-(6-{[(3S)-1-(2,2,2-trifluoroethyl)pyrrolidin-3-yl]methoxy}pyridin-3-yl)-5-{[5-(trifluoromethyl)pyrazin-2-yl]amino}-1,2-thiazole-4-carboxamide]",> 20 µM

# Further lines, results first:
row,IC50,SMILES
1,> 20 µM,"Cc1nsc(Nc2cnc3ccccc3n2)c1C(=O)Nc1ccc(NCCN(C)C(=O)OC(C)(C)C)nc1 [Example 434, tert-Butyl methyl(2-{[5-({[3-methyl-5-(quinoxalin-2-ylamino)-1,2-thiazol-4-yl]carbonyl}amino)pyridin-2-yl]amino}ethyl)carbamate]"
2,≥ 20 µM,"Cc1nsc(Nc2ccc(C#N)cn2)c1C(=O)Nc1ccc(OC2CCCN(C(=O)OC(C)(C)C)C2)nc1 (centres unmarked) [Example 36, tert-Butyl 3-({5-[({5-[(5-cyanopyridin-2-yl)amino]-3-methyl-1,2-thiazol-4-yl}-carbonyl)amino]pyridin-2-yl}oxy)piperidine-1-carboxylate]"
3,≥ 20 µM,"Cc1nsc(Nc2cc(C#N)ccn2)c1C(=O)Nc1ccc(OC2CCCNC2)nc1 (centres unmarked) [Example 35, 5-[(4-Cyanopyridin-2-yl)amino]-3-methyl-N-[6-(piperidin-3-yloxy)pyridin-3-yl]-1,2-thiazole-4-carboxamide]"
4,≥ 20 µM,"Cc1nsc(Nc2cnc3ccccc3n2)c1C(=O)Nc1cccc(C(=O)N[C@@H](CCC(N)=O)C(=O)OC(C)(C)C)c1 [Example 56, tert-butyl N^2-[3-({[3-methyl-5-(quinoxalin-2-ylamino)-1,2-thiazol-4-yl]carbonyl}amino)-benzoyl]glutaminate]"
5,> 20 µM,"Cc1nsc(Nc2cnc(C(F)(F)F)cn2)c1C(=O)Nc1ccc(OC2CCNCC2)c(F)c1 [Example 431, N-[3-Fluoro-4-(piperidin-4-yloxy)phenyl]-3-methyl-5-{[5-(trifluoromethyl)pyrazin-2-yl]amino}-1,2-thiazole-4-carboxamide]"
6,9 µM,"Cc1nsc(Nc2cnc3ccccc3n2)c1C(=O)Nc1cccc(C(=O)N2CCOCC2)c1 [Example 52, 3-Methyl-N-[3-(morpholin-4-ylcarbonyl)phenyl]-5-(quinoxalin-2-ylamino)-1,2-thiazole-4-carboxamide]"
7,≥ 20 µM,"Cc1nsc(Nc2ccc(C#N)cn2)c1C(=O)Nc1ccc(OC2CCCN(CC(F)F)C2)nc1 (centres unmarked) [Example 39, 5-[(5-Cyanopyridin-2-yl)amino]-N-(6-{[1-(2,2-difluoroethyl)piperidin-3-yl]oxy}-pyridin-3-yl)-3-methyl-1,2-thiazole-4-carboxamide]"
8,1.9 µM,"Cc1nsc(Nc2cnc3ccccc3n2)c1C(=O)Nc1cccc(C(=O)O)c1 [Example 51, 3-({[3-Methyl-5-(quinoxalin-2-ylamino)-1,2-thiazol-4-yl]carbonyl}amino)benzoic acid]"
